Values quoted from earlier work as cited in patent publication US8765743B2, “Compounds” (Glaxosmithkline Intellectual Property Development Limited, priority 2008, dated 2014).
Read-outs that look alike come from different tables or passages of the source.

Legend:
CK2 protein kinase = CK2 protein kinase (Homo sapiens, UniProt P68400)
Chain of CK2 protein kinase (P68400 whole entry): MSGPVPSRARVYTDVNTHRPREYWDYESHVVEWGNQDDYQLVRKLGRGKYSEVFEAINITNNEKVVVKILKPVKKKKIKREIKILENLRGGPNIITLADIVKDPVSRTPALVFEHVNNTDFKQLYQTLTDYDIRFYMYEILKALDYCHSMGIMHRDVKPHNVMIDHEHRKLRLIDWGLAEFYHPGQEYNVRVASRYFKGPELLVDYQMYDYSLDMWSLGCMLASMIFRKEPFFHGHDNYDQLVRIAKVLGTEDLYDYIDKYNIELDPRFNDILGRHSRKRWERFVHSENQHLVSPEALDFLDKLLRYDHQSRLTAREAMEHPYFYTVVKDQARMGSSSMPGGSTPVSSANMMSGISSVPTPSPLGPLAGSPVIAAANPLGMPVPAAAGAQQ

Question: Which results are given for `O=c1cc(N2CCOCC2)oc2c(-c3ccccc3)cccc12` [LY294002]?
Answer: IC50 (CK2 protein kinase): 5 to 10 µM; IC50 (Class I PI3-kinases; Fruman et al. 1998, read-out: IC50 values against each of these PI3-kinases): 15 to 20 µM

Question: Which IC50 (Class I PI3-kinases; read-out: IC50 values against each of the various Class I PI3-kinases) does the source give for wortmannin here?
Answer: The IC50 was 0.001 to 0.01 µM.
